Measured values: patent publication US20050222205A1, “Treatment of pain with ifendropil” (priority 2002, published 2005)
Entries after “also recorded” stand apart in the source; their conditions may differ.

Columns and labels:
[1] = tested on: thermal stimulation of the lesioned paw; assay: effect of agents on thermal stimulation of the lesioned paw; format: in vivo
[2] = tested on: neuropathic pain; assay: model of neuropathic pain (Bennett model); format: in vivo
From the text: Evidence of the incorrect conclusion reached by Chenard et al., 1991, supra, is provided by experiments conducted in a Bennett model (Bennett et al, 1988, Pain 33(1):87-107). The results are shown in the accompanying drawing.

[3] = tested on: alpha1-adrenoceptor; assay: hypotension liability (alpha1-adrenoceptor antagonism)
[4] = target: NR2B-containing NMDA receptors (Homo sapiens, UniProt Q05586+Q13224); details: voltage-independent and non-competitive manner; cited from earlier work
[5] = tested on: acute and chronic pain; details: in vivo; cited from earlier work
[6] = tested on: alpha-1 adrenergic receptor; details: cited from earlier work

Sequence of NR2B-containing NMDA receptors (Q13224 27-1484, other chains not shown): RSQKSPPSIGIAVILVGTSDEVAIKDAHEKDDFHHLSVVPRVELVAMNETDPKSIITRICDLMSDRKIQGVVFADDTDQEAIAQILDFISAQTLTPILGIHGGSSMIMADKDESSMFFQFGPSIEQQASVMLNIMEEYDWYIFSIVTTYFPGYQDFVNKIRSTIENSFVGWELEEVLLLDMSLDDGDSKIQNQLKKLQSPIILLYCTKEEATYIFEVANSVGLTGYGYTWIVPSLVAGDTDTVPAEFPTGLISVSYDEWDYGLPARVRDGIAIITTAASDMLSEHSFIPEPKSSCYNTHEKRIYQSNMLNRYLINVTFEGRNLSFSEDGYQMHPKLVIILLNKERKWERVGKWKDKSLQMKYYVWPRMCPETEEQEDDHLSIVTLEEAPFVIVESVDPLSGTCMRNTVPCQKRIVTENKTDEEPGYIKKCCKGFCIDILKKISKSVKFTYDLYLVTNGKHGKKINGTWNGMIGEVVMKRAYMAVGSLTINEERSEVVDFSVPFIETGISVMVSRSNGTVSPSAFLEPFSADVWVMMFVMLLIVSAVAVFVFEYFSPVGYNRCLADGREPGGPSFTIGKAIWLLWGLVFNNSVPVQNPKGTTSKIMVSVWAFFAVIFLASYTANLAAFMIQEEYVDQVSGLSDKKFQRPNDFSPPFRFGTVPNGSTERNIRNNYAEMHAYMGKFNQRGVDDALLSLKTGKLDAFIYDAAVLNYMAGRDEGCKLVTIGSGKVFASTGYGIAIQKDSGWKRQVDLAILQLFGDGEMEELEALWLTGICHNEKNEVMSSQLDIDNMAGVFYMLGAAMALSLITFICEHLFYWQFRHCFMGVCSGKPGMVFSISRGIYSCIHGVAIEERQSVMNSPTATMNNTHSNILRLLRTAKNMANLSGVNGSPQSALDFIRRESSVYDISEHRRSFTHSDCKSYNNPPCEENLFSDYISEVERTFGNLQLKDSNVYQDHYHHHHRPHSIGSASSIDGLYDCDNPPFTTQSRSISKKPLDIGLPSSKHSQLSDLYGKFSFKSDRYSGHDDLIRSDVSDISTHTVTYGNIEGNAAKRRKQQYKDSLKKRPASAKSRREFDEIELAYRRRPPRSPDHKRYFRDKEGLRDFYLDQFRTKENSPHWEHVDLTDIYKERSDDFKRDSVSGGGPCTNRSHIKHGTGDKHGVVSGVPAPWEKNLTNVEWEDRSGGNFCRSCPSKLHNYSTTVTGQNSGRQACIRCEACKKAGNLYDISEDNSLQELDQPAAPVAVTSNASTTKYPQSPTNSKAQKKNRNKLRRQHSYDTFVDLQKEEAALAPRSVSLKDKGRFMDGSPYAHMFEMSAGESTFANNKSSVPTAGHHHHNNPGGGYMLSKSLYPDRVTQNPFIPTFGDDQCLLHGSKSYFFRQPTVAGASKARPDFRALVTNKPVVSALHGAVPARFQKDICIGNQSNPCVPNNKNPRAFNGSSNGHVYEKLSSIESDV

CC(C(O)c1ccc(O)cc1)N1CCC(Cc2ccccc2)CC1 (single isomer, unassigned; (-)) [(−)-threo-ifenprodil]
effectiveness on thermal stimulation of the lesioned paw, comparison of enantiomers ([1]; 3 mg/kg ip): the most effective enantiomer | efficacy versus the other enantiomers in a model of neuropathic pain [2]: does not produce a significant increase in efficacy over the other enantiomers | hypotension liability (alpha1-adrenoceptor antagonism) versus the other enantiomers [3]: lower hypotension liability

CC(C(O)c1ccc(O)cc1)N1CCC(Cc2ccccc2)CC1 (stereo not shown) [Ifenprodil, 2-(4-benzylpiperidino)-1-(4-hydroxyphenyl)-1-propanol]
effectiveness on thermal stimulation of the lesioned paw relative to comparators ([1]; ifenprodil 3, 10 and 30 mg/kg ip, gabapentin 30 mg/kg ip, morphine 8 mg/kg ip): more effective than gabapentin; also recorded: almost as effective as morphine | block of NR2B-containing NMDA receptors [4]: selectively blocks NR2B-containing NMDA receptors | anti-nociceptive activity in animal models of acute and chronic pain [5]: exhibits anti-nociceptive activity | alpha-1 adrenergic receptor binding [6]: potent alpha-1 adrenergic receptor binding properties
